# Assays:
# [1] = target: Recombinant Human PSMA/FOLH1 Protein (Homo sapiens (Human), UniProt Q04609); assay: Inhibition assay (Amplex Red glutamic acid/glutamate oxidase, NAAG substrate); assay type: biochemical; details: Target PSMA, average of N replicates; for IC50: PSMA 5 nM, NAAG 40 μM; for Ki: calculated based on Cheng-Prusoff equation
# Method: Amplex™ Red Glutamic Acid/Glutamate Oxidase Assay Kit Catalog number: A12221 (Thermofisher); Recombinant Human PSMA/FOLH1 Protein, CF (rnd systems); N-Acetyl-Asp-Glu (NAAG) (Sigma Aldrich; 96 well half area plate; Enspire plate reader.
# Prepare a working solution of 100 μM Amplex® Red reagent containing 0.25 U/mL HRP, 0.08 U/mL L-glutamate oxidase, 0.5 U/mL 1-glutamate-pyruvate transaminase, 200 μM L-alanine and keep protected from light. […] Final concentration is 5 nM. Transfer 10 μl/well of the inhibitor solution previously prepared in a separate 96 wells/plate.
# Pipette 20 μl/well of the working solution prepared above. Incubate the reactions for 30 min at 37° C., protected from light. Because the assay is continuous (not terminated), fluorescence may be measured at multiple time points to follow the kinetics of the reactions. Measure the fluorescence in a fluorescence microplate reader using excitation in the range of 530-560 nm and emission detection at ˜590 nm. Ec50s were determined with GraphPad Prism. Ki is calculated based on Cheng-Prusoff equation.
# human FOLH1 = human FOLH1 (Homo sapiens (Human), UniProt Q04609); assay: SPR analysis of binding kinetics to biotinylated FOLH1 (Biacore 8K); details: ligand PSMA; for Kon: association rate; for koff: dissociation rate; for Kd: kinetic 1:1 binding model
# Method: The interaction of PSMA-binding variants with human FOLH1 was measured with Surface Plasmon Resonance (SPR) technology. Biotinylated FOLH1 was captured at a concentration of 30 μg/mL onto a Streptavidin chip.
# Binding kinetics of the analytes were measured with a Biacore 8K instrument in two-fold serial dilutions starting at 500 nM down to 1.95 nM in single cycle kinetic measurements. After each cycle, needles were washed with 50% DMSO. To measure the association to the FOLH1 protein, the samples were injected with a flow rate of 30 μL/min for 90 s, followed by 1200 s buffer only to detect the dissociation. The used running buffer was 1×PBS with 0.05% Tween20 and 2% DMSO. The relative response units (RU, Y-axis) are plotted against time (s, X-axis) and analyzed in a kinetic 1:1 binding model.
# In a different setup, biotinylated FOLH1 was captured at a concentration of 0.8 μg/mL and the running buffer was 1×PBS with 0.05% Tween20.
# [2] = target: PSMA+ cells (22rv1 human prostate carcinoma epithelial cell line) (Homo sapiens (Human), UniProt Q04609); assay: Cellular competition assay on PSMA+ cells (flow cytometry, competition with BPT1288), 22rv1; assay type: cell-based
# Chain of PSMA+ cells (22rv1 human prostate carcinoma epithelial cell line) (Q04609 whole entry): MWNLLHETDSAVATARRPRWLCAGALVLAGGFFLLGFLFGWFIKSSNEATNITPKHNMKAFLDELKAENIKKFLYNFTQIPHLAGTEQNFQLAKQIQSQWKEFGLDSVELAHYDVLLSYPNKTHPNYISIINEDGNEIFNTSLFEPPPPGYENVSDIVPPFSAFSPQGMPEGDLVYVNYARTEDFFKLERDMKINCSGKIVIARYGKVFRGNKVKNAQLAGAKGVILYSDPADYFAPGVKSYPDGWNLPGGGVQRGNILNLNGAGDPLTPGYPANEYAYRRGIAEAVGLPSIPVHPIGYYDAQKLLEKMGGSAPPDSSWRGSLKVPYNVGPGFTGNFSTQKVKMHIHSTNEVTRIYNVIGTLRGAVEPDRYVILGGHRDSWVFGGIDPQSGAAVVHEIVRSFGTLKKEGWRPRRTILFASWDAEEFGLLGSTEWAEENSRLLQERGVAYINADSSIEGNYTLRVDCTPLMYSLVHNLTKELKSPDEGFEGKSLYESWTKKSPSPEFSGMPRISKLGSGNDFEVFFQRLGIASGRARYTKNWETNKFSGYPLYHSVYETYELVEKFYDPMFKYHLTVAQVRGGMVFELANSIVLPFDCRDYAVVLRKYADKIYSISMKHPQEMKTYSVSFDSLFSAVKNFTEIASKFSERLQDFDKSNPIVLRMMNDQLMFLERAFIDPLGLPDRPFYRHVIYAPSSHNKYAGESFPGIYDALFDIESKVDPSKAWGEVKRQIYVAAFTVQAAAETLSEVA
# Method: On the day of experiment, cells were harvested with Trypsin and washed with assay buffer consisting of 1×PBS supplemented with 2% FBS and stained with viability dye (Biolegend Zombie NIR) diluted 1:1000 in PBS for 20 minutes. After washing and counting, cells were seeded at 50,000 cells/well in a 96 well V bottom polypropylene plate and kept on ice. Twelve 4-fold serial dilutions of analytes were prepared in cold assay buffer and added to cell suspension.
# Single-cell AlexaFluor488 fluorescence emission was measured with a flow cytometer and plotted against analyte concentration in X-axis. Half maximal inhibition concentrations (IC50) were calculated based on a variable slope and four parameter analysis using GraphPad PRISM software
# Chain of Recombinant Human PSMA/FOLH1 Protein (Q04609 whole entry): as above
# Chain of human FOLH1 (Q04609 whole entry): as above
smiles,measurement,setting,value
CC(=O)NCCOCCOCCOCCC(=O)N[C@@H](CCCOc1cc(C#N)cc(C#N)c1)C(=O)NCC(=O)N[C@@H](Cc1ccc2ccccc2c1)C(=O)NCCCC[C@H](NC(=O)N[C@@H](CCC(=O)O)C(=O)O)C(=O)O [Compound 52],IC50,[1],26.1 nM
same,Ki,[1],0.187 nM
same,Kon,human FOLH1,291000 1.ms
same,koff,human FOLH1,0.000326 s⁻¹
same,Kd,human FOLH1,1.12 nM
CC(=O)NCCOCCOCCOCCC(=O)N[C@@H](Cc1cccc(C(=O)O)c1)C(=O)NCCC(=O)N[C@@H](Cc1ccc2ccccc2c1)C(=O)NCCCC[C@H](NC(=O)N[C@@H](CCC(=O)O)C(=O)O)C(=O)O [Compound 93],IC50,[1],9.6 nM
same,Ki,[1],0.0686 nM
same,Kon,human FOLH1,149000 1.ms
same,koff,human FOLH1,0.000258 s⁻¹
same,Kd,human FOLH1,1.73 nM
CC(=O)NCCOCCOCCOCCC(=O)NC[C@H]1CC[C@H](C(=O)N[C@@H](Cc2ccc(N)cc2)C(=O)NCCCC[C@H](NC(=O)N[C@@H](CCC(=O)O)C(=O)O)C(=O)O)CC1 [Compound 14],IC50,[1],286 nM
same,Ki,[1],2.05 nM
same,Kon,human FOLH1,131000 1.ms
same,koff,human FOLH1,0.000618 s⁻¹
same,Kd,human FOLH1,4.71 nM
C=CC[C@H](NC(=O)CCOCCOCCOCCNC(C)=O)C(=O)NC[C@H]1CC[C@H](C(=O)N[C@@H](Cc2ccc3ccccc3c2)C(=O)NCCCC[C@H](NC(=O)N[C@@H](CCC(=O)O)C(=O)O)C(=O)O)CC1 [Compound 41],IC50,[1],88.1 nM
same,Ki,[1],0.63 nM
same,Kon,human FOLH1,102000 1.ms
same,koff,human FOLH1,0.000199 s⁻¹
same,Kd,human FOLH1,1.95 nM
CC(=O)NCCOCCOCCOCCC(=O)NC[C@H]1CC[C@H](C(=O)N[C@@H](Cc2ccc(OCc3ccccc3)cc2)C(=O)NCCCC[C@H](NC(=O)N[C@@H](CCC(=O)O)C(=O)O)C(=O)O)CC1 [Compound 16],IC50,[1],331 nM
same,Ki,[1],2.37 nM
same,Kon,human FOLH1,461000 1.ms
same,koff,human FOLH1,0.00356 s⁻¹
same,Kd,human FOLH1,7.73 nM
CC(=O)NCCOCCOCCOCCC(=O)N[C@@H](Cc1ccc(C(=O)O)cc1)C(=O)NCCC(=O)N[C@@H](Cc1ccc2ccccc2c1)C(=O)NCCCC[C@H](NC(=O)N[C@@H](CCC(=O)O)C(=O)O)C(=O)O [Compound 95],IC50,[1],11.5 nM
same,Ki,[1],0.0823 nM
same,Kon,human FOLH1,124000 1.ms
same,koff,human FOLH1,0.000242 s⁻¹
same,Kd,human FOLH1,1.95 nM
CC(=O)NCCOCCOCCOCCC(=O)N1C[C@H](NC(=O)COc2cc(C#N)cc(C#N)c2)C[C@H]1C(=O)N[C@@H](Cc1ccc2ccccc2c1)C(=O)NCCCC[C@H](NC(=O)N[C@@H](CCC(=O)O)C(=O)O)C(=O)O [Compound 79],IC50,[1],7.79 nM
same,Ki,[1],0.0557 nM
same,Kon,human FOLH1,137000 1.ms
same,koff,human FOLH1,0.000515 s⁻¹
same,Kd,human FOLH1,3.76 nM
CC(=O)NCCOCCOCCOCCC(=O)NC[C@H]1CC[C@H](C(=O)N[C@@H](Cc2ccc(C(=O)O)cc2)C(=O)NCCCC[C@H](NC(=O)N[C@@H](CCC(=O)O)C(=O)O)C(=O)O)CC1 [Compound 21],IC50,[1],201 nM
same,Ki,[1],1.44 nM
same,Kon,human FOLH1,183000 1.ms
same,koff,human FOLH1,0.00194 s⁻¹
same,Kd,human FOLH1,10.6 nM
CC(=O)NCCOCCOCCOCCC(=O)NC[C@H]1CC[C@H](C(=O)N[C@@H](Cc2ccc3ccccc3c2)C(=O)NCCCC[C@H](NC(=O)N[C@@H](CCC(=O)O)C(=O)O)C(=O)O)CC1 [Compound 8],IC50,[1],29.3 nM
same,Ki,[1],0.21 nM
same,Kd,human FOLH1,0.654 nM
same,IC50,[2],2.65 nM
